In patent EP4752149A1, “OXYGEN-CONTAINING FUSED TRICYCLIC DERIVATIVE, AND PREPARATION METHOD THEREFOR AND USE THEREOF” (Tuojie Biotech (Shanghai) Co., Ltd., priority 2023, dated 2025):

Test system: Ovarian cancer cells (OVCAR3)
Assay: Inhibitory activity against ovarian cancer cells (OVCAR3), CTG cell viability
Format: cell-based
Settings: Homo sapiens, OVCAR-3, 168 h, 7 days with compound
Method: Ovarian cancer cells (OVCAR3) were cultured using an RPMI 1640 culture medium containing 10% FBS in a cell incubator (37 °C, 5% CO2). On day one, the cells were plated in a 384-well plate at a cell concentration of 800 cells/well and cultured overnight in an incubator. On day two, the cells were treated with compounds. The highest compound concentration was 10 µM and was diluted 3-fold to obtain 9 concentrations, and the final concentration of DMSO was 0.1%. After the cells were cultured in the incubator for another 7 days, the cell viability was tested using a CTG Cell Viability Detection Reagent (MCE); the testing method was consistent with the method provided by the kit. Data were processed using GraphPad Prism 8, and IC50 was calculated. [formula] X: the logarithm of the compound concentration; Y: inhibition%. Table 2. The IC50 (nM) of compounds of the present disclosure against OVCAR3

SMILES	IC50 [µM]
C[C@H]1COc2c(-c3nc(Nc4ccc(S(C)(=N)=O)cc4)ncc3F)cc(F)c3nc(C(C)(C)O)n1c23 (stereo partly drawn) [Example 17, (4-((5-Fluoro-4-((S)-8-fluoro-2-(2-hydroxypropan-2-yl)-3-methyl-3,4-dihydro-5-oxa-1,2a-diazaacenaphthylen-6-yl)pyrimidin-2-yl)amino)phenyl)(methyl)sulfonimide]	0.154
C[C@H]1COc2c(-c3nc(Nc4ccc(N5CCOCC5=O)c(Cl)c4)ncc3Cl)cc(F)c3nc(C(C)(C)O)n1c23 [Example 25, (S)-4-(2-Chloro-4-((5-chloro-4-(8-fluoro-2-(2-hydroxypropan-2-yl)-3-methyl-3,4-dihydro-5-oxa-1,2a-diazaacenaphthylen-6-yl)pyrimidin-2-yl)amino)phenyl)morpholin-3-one]	0.409
Cc1nc2c(F)cc(-c3nc(Nc4ccc(N5CCOCC5=O)cc4F)ncc3F)c3c2n1[C@@H](C)CO3 [Example 6, (S)-4-(3-Fluoro-4-((5-fluoro-4-(8-fluoro-2,3-dimethyl-3,4-dihydro-5-oxa-1,2a-diazaacenaphthylen-6-yl)pyrimidin-2-yl)amino)phenyl)morpholin-3-one]	0.0802
C[C@H]1COc2c(-c3nc(Nc4ccc(S(C)(=N)=O)cc4F)ncc3F)cc(F)c3nc(C(C)(C)O)n1c23 (stereo partly drawn) [Example 15, (3-Fluoro-4-((5-fluoro-4-((S)-8-fluoro-2-(2-hydroxypropan-2-yl)-3-methyl-3,4-dihydro-5-oxa-1,2a-diazaacenaphthylen-6-yl)pyrimidin-2-yl)amino)phenyl)(methyl)sulfonimide]	0.636
CNS(=O)(=O)c1ccc(Nc2ncc(Cl)c(-c3cc(F)c4nc(C(C)(C)O)n5c4c3OC[C@@H]5C)n2)cc1 [Example 5, (S)-4-((5-Chloro-4-(8-fluoro-2-(2-hydroxypropan-2-yl)-3-methyl-3,4-dihydro-5-oxa-1,2a-diazaacenaphthylen-6-yl)pyrimidin-2-yl)amino)-N-methylbenzenesulfonamide]	0.0899
CNS(=O)(=O)c1ccc(Nc2ncc(F)c(-c3cc(F)c4nc(C(C)(C)O)n5c4c3OC[C@@H]5C)n2)c(F)c1 [Example 16, (S)-3-Fluoro-4-((5-fluoro-4-(8-fluoro-2-(2-hydroxypropan-2-yl)-3-methyl-3,4-dihydro-5-oxa-1,2a-diazaacenaphthylen-6-yl)pyrimidin-2-yl)amino)-N-methylbenzenesulfonamide]	0.223
C[C@H]1COc2c(-c3nc(Nc4ccc(N5CCOCC5=O)c(F)c4)ncc3Cl)cc(F)c3nc(C(C)(C)O)n1c23 [Example 24, (S)-4-(4-((5-Chloro-4-(8-fluoro-2-(2-hydroxypropan-2-yl)-3-methyl-3,4-dihydro-5-oxa-1,2a-diazaacenaphthylen-6-yl)pyrimidin-2-yl)amino)2-fluorophenyl)morpholin-3-one]	0.255
C[C@H]1COc2c(-c3nc(Nc4ccc(N5CCOCC5=O)cc4F)ncc3F)cc(F)c3ncn1c23 [Example 2, (S)-4-(3-Fluoro-4-((5-fluoro-4-(8-fluoro-3-methyl-3,4-dihydro-5-oxa-1,2a-diazaacenaphthylen-6-yl)pyrimidin-2-yl)amino)phenyl)morpholin-3-one]	0.0475
C[C@H]1COc2c(-c3nc(Nc4ccc(N5CCOCC5=O)cc4)ncc3F)cc(F)c3nc(C(C)(C)O)n1c23 [Example 18, (S)-4-(4-((5-Fluoro-4-(8-fluoro-2-(2-hydroxypropan-2-yl)-3-methyl-3,4-dihydro-5-oxa-1,2a-diazaacenaphthylen-6-yl)pyrimidin-2-yl)amino)phenyl)morpholin-3-one]	0.103
C[C@H]1COc2c(-c3nc(Nc4ccc(N5CCOCC5=O)cc4F)ncc3C#N)cc(F)c3nc(C(C)(C)O)n1c23 [Example 13, (S)-4-(8-Fluoro-2-(2-hydroxypropan-2-yl)-3-methyl-3,4-dihydro-5-oxa-1,2a-diazaacenaphthylen-6-yl)-2-((2-fluoro-4-(3-oxomorpholino)phenyl)amino)pyrimidine-5-carbonitrile]	0.901
CC(O)c1nc2c(F)cc(-c3nc(Nc4ccc(N5CCOCC5=O)cc4F)ncc3F)c3c2n1[C@@H](C)CO3 (stereo partly drawn) [Example 21, 4-(3-Fluoro-4-((5-fluoro-4-((3S)-8-fluoro-2-(1-hydroxyethyl)-3-methyl-3,4-dihydro-5-oxa-1,2a-diazaacenaphthylen-6-yl)pyrimidin-2-yl)amino)phenyl)morpholin-3-one]	0.26
C[C@H]1COc2c(-c3nc(Nc4ccc(CC#N)cc4)ncc3Cl)cc(F)c3nc(C(C)(C)O)n1c23 [Example 29]	0.335
CNS(=N)(=O)c1ccc(Nc2ncc(Cl)c(-c3cc(F)c4nc(C(C)(C)O)n5c4c3OC[C@@H]5C)n2)c(F)c1 (stereo partly drawn) [Example 9, 4-((5-Chloro-4-((S)-8-fluoro-2-(2-hydroxypropan-2-yl)-3-methyl-3,4-dihydro-5-oxa-1,2a-diazaacenaphthylen-6-yl)pyrimidin-2-yl)amino)-3-fluoro-N-methylbenzenesulfonimide]	0.752
C[C@H]1COc2c(-c3nc(Nc4ccc(N5CCOCC5=O)cc4)ncc3Cl)cc(F)c3nc(C(C)(C)O)n1c23 [Example 10, (S)-4-(4-((5-Chloro-4-(8-fluoro-2-(2-hydroxypropan-2-yl)-3-methyl-3,4-dihydro-5-oxa-1,2a-diazaacenaphthylen-6-yl)pyrimidin-2-yl)amino)phenyl)morpholin-3-one]	0.231
C[C@H]1COc2c(-c3nc(Nc4ccc(S(C)(=N)=O)cc4)ncc3Cl)cc(F)c3nc(C(C)(C)O)n1c23 (stereo partly drawn) [Example 19, (4-((5-Chloro-4-((S)-8-fluoro-2-(2-hydroxypropan-2-yl)-3-methyl-3,4-dihydro-5-oxa-1,2a-diazaacenaphthylen-6-yl)pyrimidin-2-yl)amino)phenyl)(methyl)sulfinamide]	0.276
CNC(=O)c1ccc(Nc2ncc(Cl)c(-c3cc(F)c4nc(C(C)(C)O)n5c4c3OC[C@@H]5C)n2)cc1 [Example 11, (S)-4-((5-Chloro-4-(8-fluoro-2-(2-hydroxypropan-2-yl)-3-methyl-3,4-dihydro-5-oxa-1,2a-diazaacenaphthylen-6-yl)pyrimidin-2-yl)amino)-N-methylbenzamide]	0.673

Continued, values first:

IC50 [µM]	SMILES
0.961	C[C@H]1COc2c(-c3nc(Nc4ccc(C(=O)N5CC[C@H](N(C)C)C5)c(Cl)c4)ncc3Cl)cc(F)c3nc(C(C)(C)O)n1c23 [Example 36, (2-Chloro-4-((5-chloro-4-((S)-8-fluoro-2-(2-hydroxypropan-2-yl)-3-methyl-3,4-dihydro-5-oxa-1,2a-diazaacenaphthylen-6-yl)pyrimidin-2-yl)amino)phenyl)((S)-3-(dimethylamino)pyrrolidin-1-yl)methanone]
0.517	COCc1nc2c(F)cc(-c3nc(Nc4ccc(N5CCOCC5=O)cc4F)ncc3F)c3c2n1[C@@H](C)CO3 [Example 26, (S)-4-(3-Fluoro-4-((5-fluoro-4-(8-fluoro-2-(methoxymethyl)-3-methyl-3,4-dihydro-5-oxa-1,2a-diazaacenaphthylen-6-yl)pyrimidin-2-yl)amino)phenyl)morpholin-3-one]
0.137	C[C@H]1COc2c(-c3nc(Nc4ccc(N5CCOCC5=O)cc4F)ncc3F)cc(F)c3nc(C4(O)CCC4)n1c23 [Example 28, (S)-4-(3-Fluoro-4-((5-fluoro-4-(8-fluoro-2-(1-hydroxycyclobutyl)-3-methyl-3,4-dihydro-5-oxa-1,2a-diazaacenaphthylen-6-yl)pyrimidin-2-yl)amino)phenyl)morpholin-3-one]
0.202	C[C@H]1COc2c(-c3nc(Nc4ccc(C(=O)N5CC[C@H](N(C)C)C5)c(F)c4)ncc3Cl)cc(F)c3nc(C(C)(C)O)n1c23 [Example 35, (4-((5-Chloro-4-((S)-8-fluoro-2-(2-hydroxypropan-2-yl)-3-methyl-3,4-dihydro-5-oxa-1,2a-diazaacenaphthylen-6-yl)pyrimidin-2-yl)amino)2-fluorophenyl)((S)-3-(dimethylamino)pyrrolidin-1-yl)methanone]
0.69	C[C@H]1COc2c(-c3nc(Nc4ccc(C(=O)N5CC[C@@H](N(C)C)C5)c(Cl)c4)ncc3Cl)cc(F)c3nc(C(C)(C)O)n1c23 [Example 38, (2-Chloro-4-((5-chloro-4-((S)-8-fluoro-2-(2-hydroxypropan-2-yl)-3-methyl-3,4-dihydro-5-oxa-1,2a-diazaacenaphthylen-6-yl)pyrimidin-2-yl)amino)phenyl)((R)-3-(dimethylamino)pyrrolidin-1-yl)methanone]
0.364	C[C@H]1COc2c(-c3nc(Nc4ccc(C(=O)N5CC[C@H](N(C)C)C5)cc4)ncc3Cl)cc(F)c3nc(C(C)(C)O)n1c23 [Example 40, (4-((5-Chloro-4-((S)-8-fluoro-2-(2-hydroxypropan-2-yl)-3-methyl-3,4-dihydro-5-oxa-1,2a-diazaacenaphthylen-6-yl)pyrimidin-2-yl)amino)phenyl)((S)-3-(dimethylamino)pyrrolidin-1-yl)methanone]
0.426	CCN1CCN(C(=O)c2ccc(Nc3ncc(Cl)c(-c4cc(F)c5nc(C(C)(C)O)n6c5c4OC[C@@H]6C)n3)cc2F)CC1 [Example 32, (S)-(4-((5-Chloro-4-(8-fluoro-2-(2-hydroxypropan-2-yl)-3-methyl-3,4-dihydro-5-oxa-1,2a-diazaacenaphthylen-6-yl)pyrimidin-2-yl)amino)-2-fluorophenyl)(4-ethylpiperazin-1-yl)methanone]
0.674	C[C@H]1COc2c(-c3nc(Nc4ccc(C(=O)N5CC[C@@H](N(C)C)C5)cc4)ncc3Cl)cc(F)c3nc(C(C)(C)O)n1c23 [Example 42, (4-((5-Chloro-4-((S)-8-fluoro-2-(2-hydroxypropan-2-yl)-3-methyl-3,4-dihydro-5-oxa-1,2a-diazaacenaphthylen-6-yl)pyrimidin-2-yl)amino)phenyl)((R)-3-(dimethylamino)pyrrolidin-1-yl)methanone]
